Laboratory results taken from patent US8546375B2, “(3-(4-(aminomethyl)phenoxy or phenylthio)azetidin-1-yl)(5-phenyl-1,3,4-oxadiazol-2-yl)methanone compounds” (AstraZeneca AB, priority 2010, dated 2013).
pIC50: −log10 of the molar value. Counter-ions that a name gives are not always drawn. Like-named read-outs stand apart in the source and are kept apart here.

Molecular target: T1, Melanin Concentrating Hormone Receptor 1 (MCHR1) (Homo sapiens, UniProt Q99705)
T1 construct: expressed in transfected cells
T1 sequence (Q99705 whole entry): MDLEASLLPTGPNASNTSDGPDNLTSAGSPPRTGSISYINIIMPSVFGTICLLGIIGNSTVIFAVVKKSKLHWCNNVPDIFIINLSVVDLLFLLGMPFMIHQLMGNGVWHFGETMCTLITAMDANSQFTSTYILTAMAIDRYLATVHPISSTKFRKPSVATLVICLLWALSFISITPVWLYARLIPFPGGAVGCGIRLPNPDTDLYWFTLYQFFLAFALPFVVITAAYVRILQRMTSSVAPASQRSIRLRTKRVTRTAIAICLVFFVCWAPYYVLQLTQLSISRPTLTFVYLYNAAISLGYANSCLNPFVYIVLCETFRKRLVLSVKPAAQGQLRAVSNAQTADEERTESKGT
Assay: MCHR1 Receptor Activation Assay (GTPγ^35S)
Format: biochemical

[1] = separated enantiomers of Example 84 (chiral chromatography fractions), assay not given, read-out: IC50
[2] = when tested in the above referenced assays (MCH binding assay; MCHR1 receptor activation assay), read-out: IC50 value

## COc1ccc(-c2nnc(C(=O)N3CC(Oc4ccc(CN5CCC(C)(CO)C5)cc4)C3)o2)cc1 (single isomer, unassigned; (+)) [Example E2, (+)(3-(4-((3-(hydroxymethyl)-3-methylpyrrolidin-1-yl)methyl)phenoxy)azetidin-1-yl)(5-(4-methoxyphenyl)-1,3,4-oxadiazol-2-yl)methanone]
[1]
  pIC50: 7.62

## COc1ccc(-c2nnc(C(=O)N3CC(Oc4ccc(CN5CCC(C)(CO)C5)cc4)C3)o2)cc1 (single isomer, unassigned; (-)) [Example E1, (−)(3-(4-((3-(hydroxymethyl)-3-methylpyrrolidin-1-yl)methyl)phenoxy)azetidin-1-yl)(5-(4-methoxyphenyl)-1,3,4-oxadiazol-2-yl)methanone]
[1]
  pIC50: 7.55

## COc1ccc(-c2nnc(C(=O)N3CC(Oc4ccc(CN(C)C)c(OC(F)F)c4)C3)o2)cc1 [(3-(3-(difluoromethoxy)-4-((dimethylamino)methyl)phenoxy)azetidin-1-yl)(5-(4-methoxyphenyl)-1,3,4-oxadiazol-2-yl)methanone]
[2]
  pIC50: ≤ 7.00

## COCCN(CCOC)Cc1ccc(OC2CN(C(=O)c3nnc(-c4ccccc4)o3)C2)cc1 [(3-(4-((bis(2-methoxyethyl)amino)methyl)phenoxy)azetidin-1-yl)(5-phenyl-1,3,4-oxadiazol-2-yl)methanone]
[2]
  pIC50: ≤ 7.00

## O=C(c1nnc(-c2ccccc2)o1)N1CC(Oc2ccc(CNC3COC3)cc2)C1 [(3-(4-((oxetan-3-ylamino)methyl)phenoxy)azetidin-1-yl)(5-sphenyl-1,3,4-oxadiazol-2-yl)methanone]
[2]
  pIC50: ≤ 7.00

## O=C(c1nnc(-c2ccc(Cl)cc2)o1)N1CC(Oc2ccc(CN3CCCC3)cc2)C1 [Example 1, (5-(4-Chlorophenyl)-1,3,4-oxadiazol-2-yl)(3-(4-(pyrrolidin-1-ylmethyl)phenoxy)azetidin-1-yl)methanone]
read-out: GTPγ^35S IC50
  pIC50: 8.15

## O=C(c1nnc(-c2ccccc2)o1)N1CC(Oc2ccc(CN3CCCC3)cc2)C1 [Example 3, (5-Phenyl-1,3,4-oxadiazol-2-yl)(3-(4-(pyrrolidin-1-ylmethyl)phenoxy)azetidin-1-yl)methanone]
read-out: GTPγ^35S IC50
  pIC50: 7.57

## O=C(c1nnc(-c2ccc(F)cc2)o1)N1CC(Oc2ccc(CN3CCCC3)cc2)C1 [Example 4, (5-(4-Fluorophenyl)-1,3,4-oxadiazol-2-yl)(3-(4-(pyrrolidin-1-ylmethyl)phenoxy)azetidin-1-yl)methanone]
read-out: GTPγ^35S IC50
  pIC50: 7.70

## O=C(c1nnc(-c2ccc(C(F)(F)F)cc2)o1)N1CC(Oc2ccc(CN3CCCC3)cc2)C1 [Example 5, (3-(4-(Pyrrolidin-1-ylmethyl)phenoxy)azetidin-1-yl)(5-(4-(trifluoromethyl)phenyl)-1,3,4-oxadiazol-2-yl)methanone formate]
read-out: GTPγ^35S IC50
  pIC50: 7.82

## Cc1ccc(-c2nnc(C(=O)N3CC(Oc4ccc(CN5CCCC5)cc4)C3)o2)cc1 [Example 6, (3-(4-(Pyrrolidin-1-ylmethyl)phenoxy)azetidin-1-yl)(5-p-tolyl-1,3,4-oxadiazol-2-yl)methanone hydrochloride]
read-out: GTPγ^35S IC50
  pIC50: 7.72

## COc1cc(OC2CN(C(=O)c3nnc(-c4ccccc4)o3)C2)ccc1CN1CCOCC1 [Example 7, (3-(3-Methoxy-4-(morpholinomethyl)phenoxy)azetidin-1-yl)(5-phenyl-1,3,4-oxadiazol-2-yl)methanone]
read-out: GTPγ^35S IC50
  pIC50: 7.68

## Cc1cc(CN2CCN(C)CC2)ccc1OC1CN(C(=O)c2nnc(-c3ccccc3)o2)C1 [Example 9, (3-(2-Methyl-4-((4-methylpiperazin-1-yl)methyl)phenoxy)azetidin-1-yl)(5-phenyl-1,3,4-oxadiazol-2-yl)methanone]
read-out: GTPγ^35S IC50
  pIC50: 7.36

## COc1ccc(-c2nnc(C(=O)N3CC(Oc4ccc(CN5CCN(C)CC5)cc4C)C3)o2)cc1 [Example 10, (5-(4-Methoxyphenyl)-1,3,4-oxadiazol-2-yl)(3-(2-methyl-4-((4-methylpiperazin-1-yl)methyl)phenoxy)azetidin-1-yl)methanone]
read-out: GTPγ^35S IC50
  pIC50: 7.39

## Cc1ccc(-c2nnc(C(=O)N3CC(Oc4ccc(CN5CCN(C)CC5)cc4C)C3)o2)cc1 [Example 11, (3-(2-Methyl-4-((4-methylpiperazin-1-yl)methyl)phenoxy)azetidin-1-yl)(5-p-tolyl-1,3,4-oxadiazol-2-yl)methanone]
read-out: GTPγ^35S IC50
  pIC50: 7.29

## COc1ccc(-c2nnc(C(=O)N3CC(Oc4ccc(CN5CCOCC5)cc4C)C3)o2)cc1 [Example 12, (5-(4-Methoxyphenyl)-1,3,4-oxadiazol-2-yl)(3-(2-methyl-4-(morpholinomethyl)-phenoxy)azetidin-1-yl)methanone]
read-out: GTPγ^35S IC50
  pIC50: 7.52

## Cc1ccc(-c2nnc(C(=O)N3CC(Oc4ccc(CN5CCOCC5)cc4C)C3)o2)cc1 [Example 13, (3-(2-Methyl-4-(morpholinomethyl)phenoxy)azetidin-1-yl)(5-p-tolyl-1,3,4-oxadiazol-2-yl)methanone]
read-out: GTPγ^35S IC50
  pIC50: 7.54

## Cc1cc(CN2CCOCC2)ccc1OC1CN(C(=O)c2nnc(-c3ccccc3)o2)C1 [Example 14, (3-(2-Methyl-4-(morpholinomethyl)phenoxy)azetidin-1-yl)(5-phenyl-1,3,4-oxadiazol-2-yl)methanone]
read-out: GTPγ^35S IC50
  pIC50: 7.52

## Cc1cc(CN2CCOCC2)ccc1OC1CN(C(=O)c2nnc(-c3ccc(Cl)cc3)o2)C1 [Example 15, (5-(4-Chlorophenyl)-1,3,4-oxadiazol-2-yl)(3-(2-methyl-4-(morpholinomethyl)phenoxy)azetidin-1-yl)methanone]
read-out: GTPγ^35S IC50
  pIC50: 8.00

## COc1ccc(-c2nnc(C(=O)N3CC(Oc4ccc(CN(C)C)cc4C)C3)o2)cc1 [Example 17, (3-(4-((Dimethylamino)methyl)-2-methylphenoxy)azetidin-1-yl)(5-(4-methoxyphenyl)-1,3,4-oxadiazol-2-yl)methanone]
read-out: GTPγ^35S IC50
  pIC50: 7.60

## Cc1ccc(-c2nnc(C(=O)N3CC(Oc4ccc(CN(C)C)cc4C)C3)o2)cc1 [Example 18, (3-(4-((Dimethylamino)methyl)-2-methylphenoxy)azetidin-1-yl)(5-p-tolyl-1,3,4-oxadiazol-2-yl)methanone]
read-out: GTPγ^35S IC50
  pIC50: 7.60

## Cc1cc(CN2CCCC2)ccc1OC1CN(C(=O)c2nnc(-c3ccc(Cl)cc3)o2)C1 [Example 19, (5-(4-Chlorophenyl)-1,3,4-oxadiazol-2-yl)(3-(2-methyl-4-(pyrrolidin-1-ylmethyl)phenoxy)azetidin-1-yl)methanone]
read-out: GTPγ^35S IC50
  pIC50: 8.19

## COc1ccc(-c2nnc(C(=O)N3CC(Oc4ccc(CN(C)C)c(C)c4)C3)o2)cc1 [Example 20, (3-(4-((Dimethylamino)methyl)-3-methylphenoxy)azetidin-1-yl)(5-(4-methoxyphenyl)-1,3,4-oxadiazol-2-yl)methanone]
read-out: GTPγ^35S IC50
  pIC50: 7.62

## Cc1ccc(-c2nnc(C(=O)N3CC(Oc4ccc(CN(C)C)c(C)c4)C3)o2)cc1 [Example 22, (3-(4-((Dimethylamino)methyl)-3-methylphenoxy)azetidin-1-yl)(5-p-tolyl-1,3,4-oxadiazol-2-yl)methanone]
read-out: GTPγ^35S IC50
  pIC50: 7.60

## CC(=O)N1CCN(Cc2ccc(OC3CN(C(=O)c4nnc(-c5ccccc5)o4)C3)cc2)CC1 [Example 23, 1-(4-(4-(1-(5-Phenyl-1,3,4-oxadiazole-2-carbonyl)azetidin-3-yloxy)benzyl)piperazin-1-yl)ethanone]
read-out: GTPγ^35S IC50
  pIC50: 7.00

## COc1ccc(-c2nnc(C(=O)N3CC(Oc4ccc(CN5CCN(C(C)=O)CC5)cc4)C3)o2)cc1 [Example 24, 1-(4-(4-(1-(5-(4-Methoxyphenyl)-1,3,4-oxadiazole-2-carbonyl)azetidin-3-yloxy)benzyl)piperazin-1-yl)ethanone]
read-out: GTPγ^35S IC50
  pIC50: 7.36

## CC(=O)N1CCN(Cc2ccc(OC3CN(C(=O)c4nnc(-c5ccc(Cl)cc5)o4)C3)cc2)CC1 [Example 25, 1-(4-(4-(1-(5-(4-Chlorophenyl)-1,3,4-oxadiazole-2-carbonyl)azetidin-3-yloxy)benzyl)piperazin-1-yl)ethanone]
read-out: GTPγ^35S IC50
  pIC50: 7.47

## CN(C)Cc1ccc(OC2CN(C(=O)c3nnc(-c4ccccc4)o3)C2)cc1F [Example 26, (3-(4-((Dimethylamino)methyl)-3-fluorophenoxy)azetidin-1-yl)(5-phenyl-1,3,4-oxadiazol-2-yl)methanone]
read-out: GTPγ^35S IC50
  pIC50: 7.52

## COc1ccc(-c2nnc(C(=O)N3CC(Oc4ccc(CN(C)C)c(F)c4)C3)o2)cc1 [Example 27, (3-(4-((Dimethylamino)methyl)-3-fluorophenoxy)azetidin-1-yl)(5-(4-methoxyphenyl)-1,3,4-oxadiazol-2-yl)methanone]
read-out: GTPγ^35S IC50
  pIC50: 7.68

## Cc1ccc(-c2nnc(C(=O)N3CC(Oc4ccc(CN(C)C)c(F)c4)C3)o2)cc1 [Example 28, (3-(4-((Dimethylamino)methyl)-3-fluorophenoxy)azetidin-1-yl)(5-p-tolyl-1,3,4-oxadiazol-2-yl)methanone]
read-out: GTPγ^35S IC50
  pIC50: 7.57

## CN1CCN(Cc2ccc(OC3CN(C(=O)c4nnc(-c5ccccc5)o4)C3)cc2F)CC1 [Example 29, (3-(3-Fluoro-4-((4-methylpiperazin-1-yl)methyl)phenoxy)azetidin-1-yl)(5-phenyl-1,3,4-oxadiazol-2-yl)methanone]
read-out: GTPγ^35S IC50
  pIC50: 7.07

## O=C(c1nnc(-c2ccccc2)o1)N1CC(Oc2ccc(CN3CCCC3)c(F)c2)C1 [Example 31, (3-(3-Fluoro-4-(pyrrolidin-1-ylmethyl)phenoxy)azetidin-1-yl)(5-phenyl-1,3,4-oxadiazol-2-yl)methanone]
read-out: GTPγ^35S IC50
  pIC50: 7.70

## COc1ccc(-c2nnc(C(=O)N3CC(Oc4ccc(CN5CCCC5)c(F)c4)C3)o2)cc1 [Example 32, (3-(3-Fluoro-4-(pyrrolidin-1-ylmethyl)phenoxy)azetidin-1-yl)(5-(4-methoxyphenyl)-1,3,4-oxadiazol-2-yl)methanone]
read-out: GTPγ^35S IC50
  pIC50: 7.82

## CN(C)Cc1ccc(OC2CN(C(=O)c3nnc(-c4ccccc4)o3)C2)cc1 [Example 33, (3-(4-((Dimethylamino)methyl)phenoxy)azetidin-1-yl)(5-phenyl-1,3,4-oxadiazol-2-yl)methanone]
read-out: GTPγ^35S IC50
  pIC50: 7.47

## CSc1ccc(-c2nnc(C(=O)N3CC(Oc4ccc(CN(C)C)cc4)C3)o2)cc1 [Example 34, (3-(4-((Dimethylamino)methyl)phenoxy)azetidin-1-yl)(5-(4-(methylthio)phenyl)-1,3,4-oxadiazol-2-yl)methanone]
read-out: GTPγ^35S IC50
  pIC50: 7.74
